Assays:
[1] = Anorectic activities of stereoisomers: 3-day food consumption and body weight gain in meal-fed rats; format: in vivo, Charles River female rats; settings: 1.32 mmoles/kg oral, 3 days, mean ± S.E.
Procedure: Charles River female rats (Charles River Breeding Laboratories, Wilmington, Mass.), weighing 196 to 210 g, were individually housed in wire-bottomed cages in a temperature-regulated (22° C.) light-controlled room (12 hr light, 6 a.m. to 6 p.m. and 12 hr dark, 6 p.m. to 6 a.m.). Animals were fasted 48 hr, then meal-fed a 70% glucose diet from 8 to 11 a.m. Following 5 to 12 days alimentation on the meal-feeding regimen, rats were dosed with the appropriate compounds orally by intubation 1/2 hr before the 3 hr meal for 3 days. The total food consumption and body weight gained during the 3 day period were determined. The control group consisted of 16 rats, while the experimental group consists of 8 rats.

[2] = Anorectic effect in 8 hour meal-fed Zucker rats (Example 17); format: in vivo, lean (Fa/-) and obese (fa/fa)
Procedure: Lean (Fa/-) Zucker rats and obese (fa/fa) Zucker rats of both sexes were individually housed in wire-bottomed cages in a temperature-regulated (22° C.) light-controlled room (12 hr light, 6 a.m. to 6 p.m. and 12 hr dark, 6 p.m. 6 a.m.). The animals were fed a high carbohydrate (70% glucose) diet ad libitum for 13 days, dosed with the indicated compounds by oral intubation for 9 days and allowed to recover for 3 days. The animals were then meal fed from 8 a.m. to 4 p.m. for a period of 5 days, following which they were continued on the same meal schedule for an additional 6 days. During the 6-day period, the animals were administered the indicated compounds by oral intubation at 8 a.m. and 12 p.m. Food cups were weighed immediately after the meal.

[3] = Body weight gain in 8 hour meal-fed Zucker rats (Example 18); format: in vivo, lean (Fa/-) and obese (fa/fa); settings: 0.66 mmoles/kg b.i.d. oral, 6 days, mean ± S.E.
Procedure: Lean (Fa/-) Zucker rats and obese (fa/fa) Zucker rats of both sexes were individually housed in wire-bottomed cages in a temperature-regulated (22° C.) light-controlled room (12 hr light, 6 a.m. to 6 p.m. and 12 hr dark, 6 p.m. to 6 a.m.). The animals were fed a high carbohydrate (70% glucose) diet ad libitum for 13 days, dosed with the indicated compounds by oral intubation for 9 days and allowed to recover for 3 days. The animals were then meal fed from 8 a.m. to 4 p.m. for a period of 5 days, following which they were continued on the same meal schedule for an additional 6 days. During the 6-day period, the animals were administered the indicated compounds by oral intubation at 8 a.m. and 12 p.m. Body weight gain during the 6-day period was determined.

[4] = Total body fat in meal-fed rats, oral administration, 17 day study (Example 22); format: in vivo, Charles River female rats; settings: 17 days
Procedure: Two month old Charles River female rats (Charles River Breeding Laboratories, Wilmington, Mass.) were individually housed in wire-bottomedcages in a temperature-regulated (22° C.) light-controlled room (12 hr light, 6 a.m. to 6 p.m. and 12 hr dark, 6 p.m. to 6 a.m.). […] On the 8th day, the animals were administered water or (-)-threo-chlorocitric acid at the indicated concentration by oral intubation 30 min before the 3 hr meal. Treatment was continued for 17 days. Food cups were weighed immediately after the meal. After 17 days of treatment, rats were killed by decapitation and blood was removed. […] C. Sullivan, et al, Am. J. Clinical Nutrition, 30 767 (1977). […] Total carcass and lipid data are expressed in grams and percentages of carcass weight.

Stomach Emptying = assay: Effect on stomach emptying ([14C]glucose load) in rats (Example 25); format: in vivo; settings: 0.33 mmoles/kg oral, 60 min after [14C]glucose load, mean ± S.E.
Procedure: Rats were trained to consume a 3 hr 70% glucose meal from 8 a.m. to 11 a.m. daily. On the experimental day, compounds were administered orally by intubation 30 min before a [^14 C]glucose load was given also by intubation. […] Sixty minutes later the rats were killed by decapitation; blood and stomachs were collected on ice.
Data are expressed as follows: dpm×10^3 per ml of serum and dpm×10^3 per stomach.

[5] = tested on: fatty acid and cholesterol syntheses; assay: Inhibition of fatty acid, lipid and cholesterol synthesis (summary statements)
[6] = G-70, 0.05 mmoles (114 mg)/kg oral (so in the source)
[7] = G-70, 0.25 mmoles (57 mg)/kg oral
[8] = G-70, 1.00 mmoles (227 mg)/kg oral

O=C(O)C[C@@](O)(C(=O)O)[C@@H](Cl)C(=O)O [(-)-threo-Chlorocitric acid, (-)-threo-chlorocitric acid]
3-Day Body Weight Gain [1]: -22.4 ± 2.3 g
3-Day Food Consumption [1]: 10.5 ± 1.3 g
Daily Food Consumption ([2]; Fa/- lean, 0.66 mmoles/kg oral, treatment day 1): 12.5 ± 1.1 g
Daily Food Consumption ([2]; Fa/- lean, 0.66 mmoles/kg oral, treatment day 2): 7.0 ± 0.9 g
Daily Food Consumption ([2]; Fa/- lean, 0.66 mmoles/kg oral, treatment day 3): 7.2 ± 0.7 g
Daily Food Consumption ([2]; Fa/- lean, 0.66 mmoles/kg oral, treatment day 4): 5.4 ± 1.1 g
Daily Food Consumption ([2]; Fa/- lean, 0.66 mmoles/kg oral, treatment day 5): 7.3 ± 1.5 g
Daily Food Consumption ([2]; Fa/- lean, 0.66 mmoles/kg oral, treatment day 6): 7.5 ± 1.3 g
Daily Food Consumption ([2]; Fa/- lean, 0.66 mmoles/kg, day 0 (pretreatment)): 10.8 ± 1.0 g
Daily Food Consumption ([2]; fa/fa obese, 0.66 mmoles/kg oral, treatment day 1): 10.7 ± 0.7 g
Daily Food Consumption ([2]; fa/fa obese, 0.66 mmoles/kg oral, treatment day 2): 5.9 ± 1.5 g
Daily Food Consumption ([2]; fa/fa obese, 0.66 mmoles/kg oral, treatment day 3): 5.8 ± 0.9 g
Daily Food Consumption ([2]; fa/fa obese, 0.66 mmoles/kg oral, treatment day 4): 5.5 ± 0.9 g
Daily Food Consumption ([2]; fa/fa obese, 0.66 mmoles/kg oral, treatment day 5): 4.9 ± 1.0 g
Daily Food Consumption ([2]; fa/fa obese, 0.66 mmoles/kg oral, treatment day 6): 5.1 ± 1.1 g
Daily Food Consumption ([2]; fa/fa obese, 0.66 mmoles/kg, day 0 (pretreatment)): 13.1 ± 1.1 g
Body Weight Gain ([3]; Fa/- lean): -20.7 ± 2.2 g
Body Weight Gain ([3]; fa/fa obese): -33.5 ± 3.1 g
Carcass Lipid (% carcass), % of control [4, 6]: 82 % of control
Carcass Lipid total, % of control [4, 6]: 67 % of control
Carcass Lipid, % carcass [4, 6]: 4.43 ± 0.56 % carcass
Carcass Lipid, total [4, 6]: 7.85 ± 1.03 g
Carcass Weight [4, 6]: 177 ± 2 g
Carcass Lipid (% carcass), % of control [4, 7]: 84 % of control
Carcass Lipid total, % of control [4, 7]: 76 % of control
Carcass Lipid, % carcass [4, 7]: 4.58 ± 0.09 % carcass
Carcass Lipid, total [4, 7]: 8.98 ± 0.30 g
Carcass Weight [4, 7]: 196 ± 4 g
Carcass Lipid (% carcass), % of control [4, 8]: 64 % of control
Carcass Lipid total, % of control [4, 8]: 50 % of control
Carcass Lipid, % carcass [4, 8]: 3.48 ± 0.68 % carcass
Carcass Lipid, total [4, 8]: 5.95 ± 1.28 g
Carcass Weight [4, 8]: 169 ± 6 g
Serum, total per ml (Stomach Emptying): 1.9 ± 0.4 dpm × 10^3
Stomach Contents, total per stomach (Stomach Emptying): 2760 ± 69 dpm × 10^3
metabolic activity on lipid (fatty acid) and cholesterol syntheses [5]: devoid of metabolic activity as an inhibitor of lipid and cholesterol syntheses
